# Bridge positions count the residues as written; N and C are the ends. Square brackets hold non-standard residues; d marks the D form. Peptide text beside a SMILES is read from it. * marks the point of attachment. Phe(4-COOH) = N[C@@H](Cc1ccc(C(=O)O)cc1)C(=O)O; Bip = N[C@@H](Cc1ccc(-c2ccccc2)cc1)C(=O)O; Phe(3-Me) = Cc1cccc(C[C@H](N)C(=O)O)c1; Cha = N[C@@H](CC1CCCCC1)C(=O)O; Carboxymethyl = O=C(O)C*; Orn = NCCC[C@H](N)C(=O)O; Aun = NCCCCCCCCCCC(=O)O; Dab = NCC[C@H](N)C(=O)O; Dap = NC[C@H](N)C(=O)O; AEEA = NCCOCCOCC(=O)O
# Molecular target: T1, PD-1/PD-L1 interaction (PE-labeled human PD-L1-Ig binding to Jurkat cell line over-expressing human PD-1) (Homo sapiens, UniProt Q15116)
# T1 construct: expressed in transfected cells; host or cells: Jurkat
# T1 sequence (Q15116 25-288): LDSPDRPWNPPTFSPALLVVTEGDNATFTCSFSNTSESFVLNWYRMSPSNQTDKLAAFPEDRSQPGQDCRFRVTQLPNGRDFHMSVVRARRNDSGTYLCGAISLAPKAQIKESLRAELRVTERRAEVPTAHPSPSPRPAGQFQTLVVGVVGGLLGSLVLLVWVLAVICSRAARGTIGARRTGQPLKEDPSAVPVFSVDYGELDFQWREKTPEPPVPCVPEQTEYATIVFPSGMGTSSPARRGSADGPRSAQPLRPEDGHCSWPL
# Assay: Jurkat-PD-1 Cell Binding High-Content Screening Assay (CBA)
# Assay type: cell-based
# Conditions: Jurkat cell line over-expressing human PD-1; PE-labeled PD-L1-Ig 20 nM final; read-out: Jurkat hPD1-PDL1 IC50
# Outline: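 Jurkat-hPD-1 cells, DMEM/10% FCS; cpd 2 h 37° C; PE-PD-L1-Ig 20 nM final, 1 h; 4% PFA fix + Hoechst 33342, 3× dPBS wash; high-content imaging read-out.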
row,IC50 [nM],Structure (SMILES)
1,18.4,CC(C)C[C@H]1NC(=O)[C@H](CCCN)NC(=O)[C@H](C(C)C)NC(=O)[C@H](Cc2ccc(-c3ccccc3)cc2)NC(=O)[C@H](C(C)C)NC(=O)[C@H](Cc2c[nH]c3ccccc23)NC(=O)[C@H](CC(=O)O)NC(=O)[C@H](Cc2ccc(C(=O)O)cc2)NC(=O)[C@H](Cc2ccc(OCC(=O)O)cc2)NC(=O)CSC[C@@H](C(=O)NCCOCCOCC(=O)N[C@@H](CCCCN)C(=O)NCCCCCCCCCCC(=O)O)NC(=O)[C@H](CCCCN)NC(=O)[C@H](C(C)C)NC(=O)[C@H](CC2CCCCC2)NC(=O)[C@H](CCN)NC1=O [Compound 2593] ({CH2CO}-Y(Carboxymethyl)[Phe(4-COOH)]DWV[Bip]V[Orn][dL][Dab][Cha]VKC[AEEA]K[Aun]-OH; thioether N-14)
2,34.1,CC(C)C[C@H]1NC(=O)[C@H](CCCN)NC(=O)[C@H](C(C)C)NC(=O)[C@H](Cc2ccc(-c3ccccc3)cc2)NC(=O)[C@H](C(C)C)NC(=O)[C@H](Cc2c[nH]c3ccccc23)NC(=O)[C@H](CC(=O)O)NC(=O)[C@H](Cc2ccc(OCC(=O)O)cc2)NC(=O)[C@H](CN)NC(=O)CSC[C@@H](C(=O)NCCOCCOCC(=O)N[C@@H](CCCCN)C(=O)NCCCCCCCCCCC(=O)O)NC(=O)[C@H](CCCCN)NC(=O)[C@H](C(C)C)NC(=O)[C@H](CC2CCCCC2)NC(=O)[C@H](CCN)NC1=O [Compound 2595] ({CH2CO}-[Dap]Y(Carboxymethyl)DWV[Bip]V[Orn][dL][Dab][Cha]VKC[AEEA]K[Aun]-OH; thioether N-14)
3,9.6,Cc1cccc(C[C@@H]2NC(=O)[C@H](CC(=O)O)NC(=O)[C@H](Cc3ccc(OCC(=O)O)cc3)NC(=O)[C@H](CN)NC(=O)CSC[C@@H](C(=O)NCCOCCOCC(=O)N[C@@H](CCCCN)C(=O)NCCCCCCCCCCC(=O)O)NC(=O)[C@H](CN)NC(=O)[C@H](C(C)C)NC(=O)[C@H](CC3CCCCC3)NC(=O)[C@H](CCN)NC(=O)[C@@H](CC(C)C)NC(=O)[C@H](CCCN)NC(=O)[C@H](C(C)C)NC(=O)[C@H](Cc3ccc(-c4ccccc4)cc3)NC(=O)[C@H](C(C)C)NC2=O)c1 [Compound 2596] ({CH2CO}-[Dap]Y(Carboxymethyl)D[Phe(3-Me)]V[Bip]V[Orn][dL][Dab][Cha]V[Dap]C[AEEA]K[Aun]-OH; thioether N-14)
4,8.9,Cc1cccc(C[C@@H]2NC(=O)[C@H](CC(=O)O)NC(=O)[C@H](Cc3ccc(OCC(=O)O)cc3)NC(=O)[C@H](CN)NC(=O)CSC[C@@H](C(=O)NCCOCCOCC(=O)N[C@@H](CCCCN)C(=O)NCCCCCCCCCCC(=O)O)NC(=O)[C@H](CCCN)NC(=O)[C@H](C(C)C)NC(=O)[C@H](CC3CCCCC3)NC(=O)[C@H](CCN)NC(=O)[C@@H](CC(C)C)NC(=O)[C@H](CCCN)NC(=O)[C@H](C(C)C)NC(=O)[C@H](Cc3ccc(-c4ccccc4)cc3)NC(=O)[C@H](C(C)C)NC2=O)c1 [Compound 2597] ({CH2CO}-[Dap]Y(Carboxymethyl)D[Phe(3-Me)]V[Bip]V[Orn][dL][Dab][Cha]V[Orn]C[AEEA]K[Aun]-OH; thioether N-14)
5,10.6,Cc1cccc(C[C@@H]2NC(=O)[C@H](CC(=O)O)NC(=O)[C@H](Cc3ccc(OCC(=O)O)cc3)NC(=O)[C@H](CN)NC(=O)CSC[C@@H](C(=O)NCCOCCOCC(=O)N[C@@H](CCCCN)C(=O)NCCCCCCCCCCC(=O)O)NC(=O)[C@H](CCCNC(=N)N)NC(=O)[C@H](C(C)C)NC(=O)[C@H](CC3CCCCC3)NC(=O)[C@H](CCN)NC(=O)[C@@H](CC(C)C)NC(=O)[C@H](CCCN)NC(=O)[C@H](C(C)C)NC(=O)[C@H](Cc3ccc(-c4ccccc4)cc3)NC(=O)[C@H](C(C)C)NC2=O)c1 [Compound 2598] ({CH2CO}-[Dap]Y(Carboxymethyl)D[Phe(3-Me)]V[Bip]V[Orn][dL][Dab][Cha]VRC[AEEA]K[Aun]-OH; thioether N-14)
6,8.2,CC(C)C[C@H]1NC(=O)[C@H](CCCN)NC(=O)[C@H](C(C)C)NC(=O)[C@H](Cc2ccc(-c3ccccc3)cc2)NC(=O)[C@H](C(C)C)NC(=O)[C@H](Cc2c[nH]c3ccccc23)NC(=O)[C@H](CC(=O)O)NC(=O)[C@H](Cc2ccc(OCC(=O)O)cc2)NC(=O)[C@H](Cc2ccc(OCC(=O)O)cc2)NC(=O)CSC[C@@H](C(=O)NCCOCCOCC(=O)N[C@@H](CCCCN)C(=O)NCCCCCCCCCCC(=O)O)NC(=O)[C@H](CCCN)NC(=O)[C@H](C(C)C)NC(=O)[C@H](CC2CCCCC2)NC(=O)[C@H](CCN)NC1=O [Compound 2599] ({CH2CO}-Y(Carboxymethyl)Y(Carboxymethyl)DWV[Bip]V[Orn][dL][Dab][Cha]V[Orn]C[AEEA]K[Aun]-OH; thioether N-14)
7,10.3,CC(C)C[C@H]1NC(=O)[C@H](CCCN)NC(=O)[C@H](C(C)C)NC(=O)[C@H](Cc2ccc(-c3ccccc3)cc2)NC(=O)[C@H](C(C)C)NC(=O)[C@H](Cc2c[nH]c3ccccc23)NC(=O)[C@H](CC(=O)O)NC(=O)[C@H](Cc2ccc(OCC(=O)O)cc2)NC(=O)[C@H](Cc2ccc(OCC(=O)O)cc2)NC(=O)CSC[C@@H](C(=O)NCCOCCOCC(=O)N[C@@H](CCCCN)C(=O)NCCCCCCCCCCC(=O)O)NC(=O)[C@H](CN)NC(=O)[C@H](C(C)C)NC(=O)[C@H](CC2CCCCC2)NC(=O)[C@H](CCN)NC1=O [Compound 2600] ({CH2CO}-Y(Carboxymethyl)Y(Carboxymethyl)DWV[Bip]V[Orn][dL][Dab][Cha]V[Dap]C[AEEA]K[Aun]-OH; thioether N-14)
8,18.2,CC(C)C[C@H]1NC(=O)[C@H](CCCN)NC(=O)[C@H](C(C)C)NC(=O)[C@H](Cc2ccc(-c3ccccc3)cc2)NC(=O)[C@H](C(C)C)NC(=O)[C@H](Cc2c[nH]c3ccccc23)NC(=O)[C@H](CC(=O)O)NC(=O)[C@H](Cc2ccc(C(=O)O)cc2)NC(=O)[C@H](Cc2ccc(OCC(=O)O)cc2)NC(=O)CSC[C@@H](C(=O)NCCCCCCCCCCC(=O)O)NC(=O)[C@H](CCCCN)NC(=O)[C@H](C(C)C)NC(=O)[C@H](CC2CCCCC2)NC(=O)[C@H](CCN)NC1=O [Compound 2601] ({CH2CO}-Y(Carboxymethyl)[Phe(4-COOH)]DWV[Bip]V[Orn][dL][Dab][Cha]VKC[Aun]-OH; thioether N-14)
9,18.4,CC(C)C[C@H]1NC(=O)[C@H](CCCN)NC(=O)[C@H](C(C)C)NC(=O)[C@H](Cc2ccc(-c3ccccc3)cc2)NC(=O)[C@H](C(C)C)NC(=O)[C@H](Cc2c[nH]c3ccccc23)NC(=O)[C@H](CC(=O)O)NC(=O)[C@H](Cc2ccc(OCC(=O)O)cc2)NC(=O)[C@H](Cc2ccc(OCC(=O)O)cc2)NC(=O)CSC[C@@H](C(=O)NCCCCCCCCCCC(=O)O)NC(=O)[C@H](CCCNC(=N)N)NC(=O)[C@H](C(C)C)NC(=O)[C@H](CC2CCCCC2)NC(=O)[C@H](CCN)NC1=O [Compound 2602]
10,7.1,CC(C)C[C@H]1NC(=O)[C@H](CCCN)NC(=O)[C@H](C(C)C)NC(=O)[C@H](Cc2ccc(-c3ccccc3)cc2)NC(=O)[C@H](C(C)C)NC(=O)[C@H](Cc2c[nH]c3ccccc23)NC(=O)[C@H](CC(=O)O)NC(=O)[C@H](Cc2ccc(OCC(=O)O)cc2)NC(=O)[C@H](CN)NC(=O)CSC[C@@H](C(=O)NCCCCCCCCCCC(=O)O)NC(=O)[C@H](CCCCN)NC(=O)[C@H](C(C)C)NC(=O)[C@H](CC2CCCCC2)NC(=O)[C@H](CCN)NC1=O [Compound 2603] ({CH2CO}-[Dap]Y(Carboxymethyl)DWV[Bip]V[Orn][dL][Dab][Cha]VKC[Aun]-OH; thioether N-14)
11,13.2,Cc1cccc(C[C@@H]2NC(=O)[C@H](CC(=O)O)NC(=O)[C@H](Cc3ccc(OCC(=O)O)cc3)NC(=O)[C@H](CN)NC(=O)CSC[C@@H](C(=O)NCCCCCCCCCCC(=O)O)NC(=O)[C@H](CN)NC(=O)[C@H](C(C)C)NC(=O)[C@H](CC3CCCCC3)NC(=O)[C@H](CCN)NC(=O)[C@@H](CC(C)C)NC(=O)[C@H](CCCN)NC(=O)[C@H](C(C)C)NC(=O)[C@H](Cc3ccc(-c4ccccc4)cc3)NC(=O)[C@H](C(C)C)NC2=O)c1 [Compound 2604] ({CH2CO}-[Dap]Y(Carboxymethyl)D[Phe(3-Me)]V[Bip]V[Orn][dL][Dab][Cha]V[Dap]C[Aun]-OH; thioether N-14)
12,5.6,Cc1cccc(C[C@@H]2NC(=O)[C@H](CC(=O)O)NC(=O)[C@H](Cc3ccc(OCC(=O)O)cc3)NC(=O)[C@H](CN)NC(=O)CSC[C@@H](C(=O)NCCCCCCCCCCC(=O)O)NC(=O)[C@H](CCCN)NC(=O)[C@H](C(C)C)NC(=O)[C@H](CC3CCCCC3)NC(=O)[C@H](CCN)NC(=O)[C@@H](CC(C)C)NC(=O)[C@H](CCCN)NC(=O)[C@H](C(C)C)NC(=O)[C@H](Cc3ccc(-c4ccccc4)cc3)NC(=O)[C@H](C(C)C)NC2=O)c1 [Compound 2605] ({CH2CO}-[Dap]Y(Carboxymethyl)D[Phe(3-Me)]V[Bip]V[Orn][dL][Dab][Cha]V[Orn]C[Aun]-OH; thioether N-14)
13,29.7,CC(C)C[C@H]1NC(=O)[C@H](CCCN)NC(=O)[C@H](C(C)C)NC(=O)[C@H](Cc2ccc(-c3ccccc3)cc2)NC(=O)[C@H](C(C)C)NC(=O)[C@H](Cc2c[nH]c3ccccc23)NC(=O)[C@H](CC(=O)O)NC(=O)[C@H](Cc2ccc(OCC(=O)O)cc2)NC(=O)[C@H](Cc2ccc(OCC(=O)O)cc2)NC(=O)CSC[C@@H](C(=O)NCCCCCCCCCCC(=O)O)NC(=O)[C@H](CCCN)NC(=O)[C@H](C(C)C)NC(=O)[C@H](CC2CCCCC2)NC(=O)[C@H](CCN)NC1=O [Compound 2607] ({CH2CO}-Y(Carboxymethyl)Y(Carboxymethyl)DWV[Bip]V[Orn][dL][Dab][Cha]V[Orn]C[Aun]-OH; thioether N-14)
14,31.7,CC(C)C[C@H]1NC(=O)[C@H](CCCN)NC(=O)[C@H](C(C)C)NC(=O)[C@H](Cc2ccc(-c3ccccc3)cc2)NC(=O)[C@H](C(C)C)NC(=O)[C@H](Cc2c[nH]c3ccccc23)NC(=O)[C@H](CC(=O)O)NC(=O)[C@H](Cc2ccc(OCC(=O)O)cc2)NC(=O)[C@H](Cc2ccc(OCC(=O)O)cc2)NC(=O)CSC[C@@H](C(=O)NCCCCCCCCCCC(=O)O)NC(=O)[C@H](CN)NC(=O)[C@H](C(C)C)NC(=O)[C@H](CC2CCCCC2)NC(=O)[C@H](CCN)NC1=O [Compound 2608] ({CH2CO}-Y(Carboxymethyl)Y(Carboxymethyl)DWV[Bip]V[Orn][dL][Dab][Cha]V[Dap]C[Aun]-OH; thioether N-14)
